Among the data in the OligoGym collection are remaining target (mRNA or protein) (fraction of control) values, retold here.

Targets include IGF2; ABCC1; ABCB1; IL11.
Common to all, as to details: ASO

These antisense oligonucleotides have a phosphorothioate backbone; sugars and methylation of C are not fully specified.
Further: test concentration or dose not given here.

In the data set with IGF2, ACCGCGCTTTCCTCCCGCCG registered a remaining target (mRNA or protein) (fraction of control) of 0.53.
Consider ACCGGATGGCGGTGGCTGCT, for which the remaining target (mRNA or protein) (fraction of control) with ABCC1 was found to be 0.73.
For the sequence AGCCCCAGCGACCCCAGCGT, in the data set with IGF2, the remaining target (mRNA or protein) (fraction of control) is at least 1.
Regarding AGCCCCGGAGCGCCATGCCG, the remaining target (mRNA or protein) (fraction of control) in the data set with ABCC1 stood at 0.74.
On to AGGCCCTGCAGTTCTGACCA, for which, in the data set with ABCC1, the remaining target (mRNA or protein) (fraction of control) was found to be 0.95.
Sequence CAGGAGGTCCGATGGGGCGC registered a remaining target (mRNA or protein) (fraction of control) with ABCC1 of 0.95.
With CCCACCTCCATCACCATGGC, the remaining target (mRNA or protein) (fraction of control) in the data set with IGF2 was 0.52.
On to CCGGTGGCGCGGGCGGCGGC, for which, in the data set with ABCC1, the remaining target (mRNA or protein) (fraction of control) turned out to be 0.69.
Consider CGATCTTGTGCGGTGTCCTG, for which, in the data set with IGF2, the remaining target (mRNA or protein) (fraction of control) was determined as 0.86.
For CGCATCTCTGTCTCTCCTGG, the remaining target (mRNA or protein) (fraction of control) with ABCC1 is 0.77.
CGCGCATGTCATCGGGAATG displayed a remaining target (mRNA or protein) (fraction of control) in the data set with IGF2 of 0.31.
In the case of CGCGCTGCTTCTGGCCCCCA, the remaining target (mRNA or protein) (fraction of control) with ABCC1 is 0.56.
Still for that read-out and setting: the same measure for CGGGGCCGCAACGCCGCCTG: 0.95.
Same read-out and setting: the same measure for CTCCTCCCTGGGCGCTGGCA: 0.74.
CTCTTCTGCCCTGTTTTGTC returned a remaining target (mRNA or protein) (fraction of control) in the data set with IGF2 of 0.31.
GCGGCGATGGGCGTGGCCAG: in the data set with ABCC1, the remaining target (mRNA or protein) (fraction of control) is 0.73.
The same measure, in the same setting: for GCTCACACCAAGCCGGCGTC the value was 0.78.
Turning to GGAACTCAGTGGAACTCAGG, the remaining target (mRNA or protein) (fraction of control) with IGF2 was 0.11.
GGCACCCACACGAGGACCGT displayed a remaining target (mRNA or protein) (fraction of control) in the data set with ABCC1 of 0.79.
In turn, GGTGATCGGGCCCGGTTGCT registered a remaining target (mRNA or protein) (fraction of control) in the data set with ABCC1 of 0.68.
As to GTGAAGGCAGACCACCGACC, the remaining target (mRNA or protein) (fraction of control) with IGF2 worked out at 0.27.
For the sequence TAAATAAGGACCAGCTCCCA, the remaining target (mRNA or protein) (fraction of control) with IGF2 turned out to be 0.41.
Sequence TACAAGATAGTACAGTACGC gave a remaining target (mRNA or protein) (fraction of control) with IGF2 of 0.33.
On to TCACCATGGCCAGCCCCAGC, for which the remaining target (mRNA or protein) (fraction of control) in the data set with IGF2 came out at 0.81.
In the case of TCGGAGCCATCGGCGCTGCA, the remaining target (mRNA or protein) (fraction of control) with ABCC1 was determined as 0.8.
The same measure, in the same setting: for TGCTGTTCGTGCCCCCGCCG the value was 0.51.
In turn, TTGCGGTCCCCTTCAAGATC displayed a remaining target (mRNA or protein) (fraction of control) with ABCB1 of 0.09.
In the data set with IL11, TTGGACGGACGGCCGTGGAG showed a remaining target (mRNA or protein) (fraction of control) of 0.75.
The sequence TTTTATTGTTCAGTTTAAAAA had a remaining target (mRNA or protein) (fraction of control) with ABCB1 of 0.92.
